Reference: PubChem BioAssay AID1918944 (Molecular Pharmacology Branch, DTP, NCI, 2023)

Test system: 786-0 complex spheroid viability
Test: Anticancer human tumor 786-0 cell line growth inhibition;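 further: spheroids exposed to agents for seven days before readout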
Details: for IC50: curve of first compound; for viability, T/C: stronger effect = lower value
Method in brief: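 Multicellular complex spheroids of tumor cells with human endothelial cells (HUVEC) and mesenchymal stem cells; the LSD1 inhibitor iadademstat was combined with standard-of-care or investigational agents. Top concentration at or near clinical Cmax, half-log dilutions; final DMSO ≤0.25%.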

[1] = second compound 0.1 µM, first compound 0.00316 µM
[2] = second compound 0.1 µM, first compound 0.01 µM
[3] = second compound 0.1 µM, first compound 0.0316 µM
[4] = second compound 0.1 µM, first compound 0.1 µM
[5] = second compound 0.316 µM, first compound 0.00316 µM
[6] = second compound 0.316 µM, first compound 0.01 µM
[7] = second compound 0.316 µM, first compound 0.0316 µM
[8] = second compound 0.316 µM, first compound 0.1 µM
[9] = second compound 1 µM, first compound 0.00316 µM
[10] = second compound 1 µM, first compound 0.01 µM
[11] = second compound 1 µM, first compound 0.0316 µM
[12] = second compound 1 µM, first compound 0.1 µM
[13] = second compound 3.16 µM, first compound 0.00316 µM
[14] = second compound 3.16 µM, first compound 0.01 µM
[15] = second compound 3.16 µM, first compound 0.0316 µM
[16] = second compound 3.16 µM, first compound 0.1 µM
[17] = second compound 10 µM, first compound 0.00316 µM
[18] = second compound 10 µM, first compound 0.01 µM
[19] = second compound 10 µM, first compound 0.0316 µM
[20] = second compound 10 µM, first compound 0.1 µM
[21] = second compound 0.1 µM, first compound 0.316 µM
[22] = second compound 0.1 µM, first compound 1 µM
[23] = second compound 0.316 µM, first compound 0.316 µM
[24] = second compound 0.316 µM, first compound 1 µM
[25] = second compound 1 µM, first compound 0.316 µM
[26] = second compound 1 µM, first compound 1 µM
[27] = second compound 3.16 µM, first compound 0.316 µM
[28] = second compound 3.16 µM, first compound 1 µM
[29] = second compound 10 µM, first compound 0.316 µM
[30] = second compound 10 µM, first compound 1 µM

Compound `CC(C)CC(NC(=O)CNC(=O)c1cc(Cl)ccc1Cl)B1OC(=O)CC(CC(=O)O)(C(=O)O)O1` (stereo not given) + NC1CC1c1ccc(-c2cccc(O)c2)cc1 has an IC50 (second compound 0.1 µM) of 14.1 nM, an IC50 (second compound 0.316 µM) of 14.8 nM and an IC50 (second compound 1 µM) of 14.7 nM. The IC50 (second compound 3.16 µM) was 13.3 nM, the IC50 (second compound 10 µM) was 9.46 nM and the viability, T/C (second compound 0.1 µM, first compound 0.000316 µM) was 95.1%. It also gave a viability, T/C (second compound 0.1 µM, first compound 0.001 µM) of 106%, a viability, T/C [1] of 93.2% and a viability, T/C [2] of 55.9%. The viability, T/C [3] was 33.5%, the viability, T/C [4] was 16.6% and the viability, T/C (second compound 0.316 µM, first compound 0.000316 µM) was 111%. The viability, T/C (second compound 0.316 µM, first compound 0.001 µM) was 106%, the viability, T/C [5] was 97.7% and the viability, T/C [6] was 59.3%. For the same compound, the viability, T/C [7] was 30.5%, the viability, T/C [8] was 17.1% and the viability, T/C (second compound 1 µM, first compound 0.000316 µM) was 101%. For the same compound, the viability, T/C (second compound 1 µM, first compound 0.001 µM) was 102%, the viability, T/C [9] was 90.5% and the viability, T/C [10] was 57.6%. For the same compound, the viability, T/C [11] was 33.2%, the viability, T/C [12] was 17.4% and the viability, T/C (second compound 3.16 µM, first compound 0.000316 µM) was 88.6%. The viability, T/C (second compound 3.16 µM, first compound 0.001 µM) was 100%, the viability, T/C [13] was 88.1% and the viability, T/C [14] was 54.6%. For the same compound, the viability, T/C [15] was 31.4%, the viability, T/C [16] was 15.6% and the viability, T/C (second compound 10 µM, first compound 0.000316 µM) was 88%. For the same compound, the viability, T/C (second compound 10 µM, first compound 0.001 µM) was 89.5%, the viability, T/C [17] was 84% and the viability, T/C [18] was 45.4%. It also gave a viability, T/C [19] of 27.4% and a viability, T/C [20] of 12.4%.

For `O=C(C=Cc1cccc(S(=O)(=O)Nc2ccccc2)c1)NO` + NC1CCC(NC2CC2c2ccccc2)CC1, the IC50 (second compound 0.1 µM) was 942 nM, the IC50 (second compound 0.316 µM) was 1020 nM and the IC50 (second compound 1 µM) was 912 nM. The IC50 (second compound 3.16 µM) was 653 nM, the IC50 (second compound 10 µM) was 446 nM and the viability, T/C (second compound 0.1 µM, first compound 0.00949 µM) was 112%. For the same compound, the viability, T/C (second compound 0.1 µM, first compound 0.03 µM) was 109%, the viability, T/C (second compound 0.1 µM, first compound 0.0949 µM) was 107% and the viability, T/C (second compound 0.1 µM, first compound 0.3 µM) was 99.6%. The viability, T/C (second compound 0.1 µM, first compound 0.949 µM) was 49.6%, the viability, T/C (second compound 0.1 µM, first compound 3 µM) was 6.03% and the viability, T/C (second compound 0.316 µM, first compound 0.00949 µM) was 113%. The viability, T/C (second compound 0.316 µM, first compound 0.03 µM) was 111%, the viability, T/C (second compound 0.316 µM, first compound 0.0949 µM) was 112% and the viability, T/C (second compound 0.316 µM, first compound 0.3 µM) was 104%. It also gave a viability, T/C (second compound 0.316 µM, first compound 0.949 µM) of 53.2%, a viability, T/C (second compound 0.316 µM, first compound 3 µM) of 5.39% and a viability, T/C (second compound 1 µM, first compound 0.00949 µM) of 107%. The viability, T/C (second compound 1 µM, first compound 0.03 µM) was 107%, the viability, T/C (second compound 1 µM, first compound 0.0949 µM) was 110% and the viability, T/C (second compound 1 µM, first compound 0.3 µM) was 92.8%. It also gave a viability, T/C (second compound 1 µM, first compound 0.949 µM) of 48.7%, a viability, T/C (second compound 1 µM, first compound 3 µM) of 5.27% and a viability, T/C (second compound 3.16 µM, first compound 0.00949 µM) of 96%. It also gave a viability, T/C (second compound 3.16 µM, first compound 0.03 µM) of 101%, a viability, T/C (second compound 3.16 µM, first compound 0.0949 µM) of 93.8% and a viability, T/C (second compound 3.16 µM, first compound 0.3 µM) of 81.9%. The viability, T/C (second compound 3.16 µM, first compound 0.949 µM) was 34.8%, the viability, T/C (second compound 3.16 µM, first compound 3 µM) was 6.76% and the viability, T/C (second compound 10 µM, first compound 0.00949 µM) was 80.5%. The viability, T/C (second compound 10 µM, first compound 0.03 µM) was 77%, the viability, T/C (second compound 10 µM, first compound 0.0949 µM) was 76.4% and the viability, T/C (second compound 10 µM, first compound 0.3 µM) was 60.7%. For the same compound, the viability, T/C (second compound 10 µM, first compound 0.949 µM) was 29.1% and the viability, T/C (second compound 10 µM, first compound 3 µM) was 2.25%.

Compound `Nc1ncn(C2CC(O)C(CO)O2)c(=O)n1` (stereo not given) + NC1CC1c1ccc(-c2cccc(O)c2)cc1 has an IC50 (second compound 0.1 µM) greater than 1000 nM, an IC50 (second compound 0.316 µM) greater than 1000 nM and an IC50 (second compound 1 µM) greater than 1000 nM. For the same compound, the IC50 (second compound 3.16 µM) was greater than 1000 nM, the IC50 (second compound 10 µM) was greater than 1000 nM and the viability, T/C [1] was 119%. The viability, T/C [2] was 122%, the viability, T/C [3] was 107% and the viability, T/C [4] was 97%. It also gave a viability, T/C [21] of 99.1%, a viability, T/C [22] of 78.4% and a viability, T/C [5] of 125%. For the same compound, the viability, T/C [6] was 113%, the viability, T/C [7] was 107% and the viability, T/C [8] was 96.5%. It also gave a viability, T/C [23] of 88.8%, a viability, T/C [24] of 82.3% and a viability, T/C [9] of 122%. For the same compound, the viability, T/C [10] was 119%, the viability, T/C [11] was 107% and the viability, T/C [12] was 96.1%. It also gave a viability, T/C [25] of 90.9%, a viability, T/C [26] of 82.5% and a viability, T/C [13] of 113%. For the same compound, the viability, T/C [14] was 115%, the viability, T/C [15] was 95.7% and the viability, T/C [16] was 94.8%. The viability, T/C [27] was 84%, the viability, T/C [28] was 75.6% and the viability, T/C [17] was 108%. For the same compound, the viability, T/C [18] was 102%, the viability, T/C [19] was 97.1% and the viability, T/C [20] was 93%. It also gave a viability, T/C [29] of 78.3% and a viability, T/C [30] of 72.9%.

For `COc1ccc([C@@H](O)c2cc(-c3ncnc4cc(N5CCOCC5)ccc34)c(F)cc2Cl)nn1` + NC1CCC(NC2CC2c2ccccc2)CC1, the IC50 (second compound 0.1 µM) was 8630 nM, the IC50 (second compound 0.316 µM) was 8980 nM and the IC50 (second compound 1 µM) was 7650 nM. It also gave an IC50 (second compound 3.16 µM) of 7270 nM, an IC50 (second compound 10 µM) of 4560 nM and a viability, T/C [3] of 115%. It also gave a viability, T/C [4] of 118%, a viability, T/C [21] of 119% and a viability, T/C [22] of 108%. It also gave a viability, T/C (second compound 0.1 µM, first compound 3.16 µM) of 72.6%, a viability, T/C (second compound 0.1 µM, first compound 10 µM) of 46.7% and a viability, T/C [7] of 127%. The viability, T/C [8] was 123%, the viability, T/C [23] was 119% and the viability, T/C [24] was 110%. It also gave a viability, T/C (second compound 0.316 µM, first compound 3.16 µM) of 72.7%, a viability, T/C (second compound 0.316 µM, first compound 10 µM) of 47.8% and a viability, T/C [11] of 115%. The viability, T/C [12] was 116%, the viability, T/C [25] was 110% and the viability, T/C [26] was 104%. It also gave a viability, T/C (second compound 1 µM, first compound 3.16 µM) of 69.9%, a viability, T/C (second compound 1 µM, first compound 10 µM) of 44% and a viability, T/C [15] of 104%. The viability, T/C [16] was 116%, the viability, T/C [27] was 104% and the viability, T/C [28] was 95.8%. The viability, T/C (second compound 3.16 µM, first compound 3.16 µM) was 67.4%, the viability, T/C (second compound 3.16 µM, first compound 10 µM) was 43.4% and the viability, T/C [19] was 89.8%. For the same compound, the viability, T/C [20] was 81%, the viability, T/C [29] was 84.7% and the viability, T/C [30] was 81.6%. It also gave a viability, T/C (second compound 10 µM, first compound 3.16 µM) of 56.6% and a viability, T/C (second compound 10 µM, first compound 10 µM) of 35.8%.
